Measured values as given in patent US9580437B2, “Triazolopyrimidine compounds and uses thereof” (Novartis AG, priority 2014, dated 2017).
pIC50: −log10 of the molar value.

What was measured:
EED (1-441)-His protein = EED (1-441)-His protein (Homo sapiens (Human), UniProt O75530); test: EED-H3K27Me3 peptide competition binding assay by AlphaScreen; settings: read-out: (a) IC50 EED Alphascreen binding Qualified
Source text: EED-H3K27Me3 peptide competition binding assay by AlphaScreen (α-screen)

[1] = target: wild type PRC2 (wtPRC2) complex (Homo sapiens (Human), UniProt O75530); test: EED LC-MS assay; format: biochemical; settings: read-out: (b) IC50 EED LC-MS Qualified
Chain of wild type PRC2 (wtPRC2) complex (O75530 whole entry): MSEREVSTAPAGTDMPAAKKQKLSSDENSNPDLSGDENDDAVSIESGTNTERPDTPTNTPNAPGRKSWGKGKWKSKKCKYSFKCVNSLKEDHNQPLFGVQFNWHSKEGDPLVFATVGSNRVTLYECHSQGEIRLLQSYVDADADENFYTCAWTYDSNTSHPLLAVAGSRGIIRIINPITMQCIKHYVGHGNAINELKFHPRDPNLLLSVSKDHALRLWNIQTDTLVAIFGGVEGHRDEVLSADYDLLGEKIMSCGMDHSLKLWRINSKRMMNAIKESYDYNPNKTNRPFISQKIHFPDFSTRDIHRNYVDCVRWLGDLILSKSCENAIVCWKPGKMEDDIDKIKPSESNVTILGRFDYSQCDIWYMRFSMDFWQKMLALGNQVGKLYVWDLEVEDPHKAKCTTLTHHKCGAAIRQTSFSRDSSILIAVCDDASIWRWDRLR
Chain of wild type PRC2 (wtPRC2) complex (Q15910 whole entry partner): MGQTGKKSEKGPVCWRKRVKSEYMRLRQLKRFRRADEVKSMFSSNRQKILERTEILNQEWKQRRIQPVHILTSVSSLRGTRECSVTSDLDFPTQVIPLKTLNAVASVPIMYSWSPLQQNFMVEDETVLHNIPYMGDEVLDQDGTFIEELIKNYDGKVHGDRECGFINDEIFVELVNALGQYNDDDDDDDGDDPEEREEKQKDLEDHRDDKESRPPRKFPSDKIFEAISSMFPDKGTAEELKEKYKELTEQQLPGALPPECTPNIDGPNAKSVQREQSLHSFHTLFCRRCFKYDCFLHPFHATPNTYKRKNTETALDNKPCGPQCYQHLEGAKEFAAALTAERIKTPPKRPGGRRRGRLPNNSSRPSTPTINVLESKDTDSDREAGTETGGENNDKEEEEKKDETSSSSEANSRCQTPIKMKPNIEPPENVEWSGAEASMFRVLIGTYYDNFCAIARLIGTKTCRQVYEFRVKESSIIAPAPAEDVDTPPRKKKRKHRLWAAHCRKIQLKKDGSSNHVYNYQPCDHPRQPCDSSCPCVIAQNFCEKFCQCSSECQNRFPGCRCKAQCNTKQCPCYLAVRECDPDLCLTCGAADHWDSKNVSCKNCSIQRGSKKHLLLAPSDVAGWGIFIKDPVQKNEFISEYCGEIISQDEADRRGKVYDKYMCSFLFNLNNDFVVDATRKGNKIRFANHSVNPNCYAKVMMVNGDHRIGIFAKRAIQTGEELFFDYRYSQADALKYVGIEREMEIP
Chain of wild type PRC2 (wtPRC2) complex (Q15022 whole entry partner): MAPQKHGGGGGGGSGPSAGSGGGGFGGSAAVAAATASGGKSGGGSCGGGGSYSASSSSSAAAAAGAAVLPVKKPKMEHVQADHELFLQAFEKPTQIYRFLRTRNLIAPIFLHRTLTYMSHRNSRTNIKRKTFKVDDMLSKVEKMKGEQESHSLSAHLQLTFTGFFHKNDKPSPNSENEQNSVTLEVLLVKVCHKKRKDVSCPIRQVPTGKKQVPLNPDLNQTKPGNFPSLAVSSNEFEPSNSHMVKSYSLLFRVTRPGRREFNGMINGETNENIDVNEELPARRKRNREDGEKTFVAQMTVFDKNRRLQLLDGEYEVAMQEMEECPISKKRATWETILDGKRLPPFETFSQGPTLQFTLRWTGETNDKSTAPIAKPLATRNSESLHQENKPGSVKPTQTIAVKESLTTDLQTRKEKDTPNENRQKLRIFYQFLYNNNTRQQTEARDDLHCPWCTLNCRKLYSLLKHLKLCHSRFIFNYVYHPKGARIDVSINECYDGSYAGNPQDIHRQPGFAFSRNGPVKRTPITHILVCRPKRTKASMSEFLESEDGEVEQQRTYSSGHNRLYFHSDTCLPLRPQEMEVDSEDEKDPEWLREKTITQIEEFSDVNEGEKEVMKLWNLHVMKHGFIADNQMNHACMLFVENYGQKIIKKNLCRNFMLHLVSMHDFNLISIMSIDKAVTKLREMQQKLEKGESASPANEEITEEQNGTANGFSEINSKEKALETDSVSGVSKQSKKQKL
Method: A 6 μL solution of 3 μM of the peptide substrate H3K27Me0 (histone H3[21-44]-biotin) in reaction buffer was added to initiate each reaction. […] ELISA (H3K27 Methylation) Assay

Chain of EED (1-441)-His protein (O75530 whole entry): as the sequence (O75530 whole entry) above

Q: `Cc1cnc(C(F)(F)F)cc1-c1cnc(NCc2c(F)ccc3c2CCO3)n2cnnc12` [Example 184, N-((5-fluoro-2,3-dihydrobenzofuran-4-yl)methyl)-8-(5-methyl-2-(trifluoromethyl)pyridin-4-yl)-[1,2,4]triazolo[4,3-c]pyrimidin-5-amine] was tested. Which pIC50 (EED (1-441)-His protein) did it give?
A: The pIC50 was 8.27.

Q: And the pIC50 [1]?
A: The pIC50 was 7.88.

Q: `c1cc(CNc2ncc(-c3ccc(N4CCOCC4)nc3)c3nncn23)c2c(c1)OCC2` [Example 69, N-((2,3-dihydrobenzofuran-4-yl)methyl)-8-(6-morpholinopyridin-3-yl)-[1,2,4]triazolo[4,3-c]pyrimidin-5-amine] was tested. Which pIC50 (EED (1-441)-His protein) did it give?
A: The pIC50 was 6.74.

Q: What about the pIC50 [1] of the same molecule?
A: Its pIC50 is 6.42.

Q: What does the source list for `Cc1cc(-c2cnc(NCc3cccc4c3CCO4)n3cnnc23)cnc1N1CCOCC1` [Example 73, N-((2,3-dihydrobenzofuran-4-yl)methyl)-8-(5-methyl-6-morpholinopyridin-3-yl)-[1,2,4]triazolo[4,3-c]pyrimidin-5-amine]?
A: pIC50 (EED (1-441)-His protein): 7.90; pIC50 [1]: 7.76

Q: `CS(=O)(=O)c1ccc(-c2cnc(NCc3cccc4c3CCO4)n3cnnc23)cc1` [Example 12, N-((2,3-dihydrobenzofuran-4-yl)methyl)-8-(4-(methylsulfonyl)phenyl)-[1,2,4]triazolo[4,3-c]pyrimidin-5-amine] was tested. Which pIC50 (EED (1-441)-His protein) did it give?
A: The pIC50 was 8.10.

Q: And the pIC50 [1]?
A: Its pIC50 is 7.80.

Q: How did the pIC50 (EED (1-441)-His protein) turn out when `O=CN1CCN(CCc2ccc(-c3cnc(NCc4cccc5c4CCO5)n4cnnc34)cn2)CC1` [Example 107, 4-(2-(5-(5-(((2,3-dihydrobenzofuran-4-yl)methyl)amino)-[1,2,4]triazolo[4,3-c]pyrimidin-8-yl)pyridin-2-yl)ethyl)piperazine-1-carbaldehyde] was run?
A: The pIC50 was 7.91.

Q: And the pIC50 [1]?
A: The pIC50 was 7.60.

Q: With `Cc1cc(S(C)(=O)=O)ncc1-c1cnc(NCc2c(F)ccc3c2CCO3)n2cnnc12` [Example 127, N-((5-fluoro-2,3-dihydrobenzofuran-4-yl)methyl)-8-(4-methyl-6-(methylsulfonyl)pyridin-3-yl)-[1,2,4]triazolo[4,3-c]pyrimidin-5-amine] as the molecule, how does the pIC50 (EED (1-441)-His protein) read?
A: Its pIC50 is 8.59.

Q: And the pIC50 [1]?
A: The pIC50 was 8.06.

Q: With `Cc1nn(C(C)C)c(C)c1-c1cnc(NCc2c(F)ccc3c2CCO3)n2cnnc12` [Example 151, N-((5-fluoro-2,3-dihydrobenzofuran-4-yl)methyl)-8-(1-isopropyl-3,5-dimethyl-1H-pyrazol-4-yl)-[1,2,4]triazolo[4,3-c]pyrimidin-5-amine] as the molecule, how does the pIC50 (EED (1-441)-His protein) read?
A: Its pIC50 is 7.88.

Q: And the pIC50 [1]?
A: The pIC50 was 7.67.

Q: How did the pIC50 (EED (1-441)-His protein) turn out when `OCCOc1ccc(-c2cnc(NCc3cccc4c3CCO4)n3cnnc23)cc1` [Example 38, 2-(4-(5-(((2,3-dihydrobenzofuran-4-yl)methyl)amino)-[1,2,4]triazolo[4,3-c]pyrimidin-8-yl)phenoxy)ethanol] was run?
A: The pIC50 was 7.62.

Q: And the pIC50 [1]?
A: Its pIC50 is 7.46.

Q: What does the source list for `Nc1ccncc1-c1cnc(NCc2cccc3c2CCO3)n2cnnc12` [Example 76, 8-(4-aminopyridin-3-yl)-N-((2,3-dihydrobenzofuran-4-yl)methyl)-[1,2,4]triazolo[4,3-c]pyrimidin-5-amine]?
A: pIC50 (EED (1-441)-His protein): 7.56; pIC50 [1]: 7.24

Q: Which results are given for `O=S(=O)(c1ccc(-c2cnc(NCc3cccc4c3CCO4)n3cnnc23)cc1)C1CCNCC1` [Example 29, N-((2,3-dihydrobenzofuran-4-yl)methyl)-8-(4-(piperidin-4-ylsulfonyl)phenyl)-[1,2,4]triazolo[4,3-c]pyrimidin-5-amine]?
A: pIC50 (EED (1-441)-His protein): 8.09; pIC50 [1]: 7.84

Q: How did the pIC50 (EED (1-441)-His protein) turn out when `Cc1c(-c2cnc(NCc3c(F)ccc4c3CCO4)n3cnnc23)ccnc1CF` [Example 182, N-((5-fluoro-2,3-dihydrobenzofuran-4-yl)methyl)-8-(2-(fluoromethyl)-3-methylpyridin-4-yl)-[1,2,4]triazolo[4,3-c]pyrimidin-5-amine] was run?
A: Its pIC50 is 8.51.

Q: What about the pIC50 [1] of the same molecule?
A: The pIC50 was 8.25.

Q: `Cc1cc(-c2cnc(NCc3c(F)ccc4c3CCO4)n3cnnc23)c(C)cn1` [Example 194, 8-(2,5-dimethylpyridin-4-yl)-N-((5-fluoro-2,3-dihydrobenzofuran-4-yl)methyl)-[1,2,4]triazolo[4,3-c]pyrimidin-5-amine] was tested. Which pIC50 (EED (1-441)-His protein) did it give?
A: The pIC50 was 8.62.

Q: And the pIC50 [1]?
A: Its pIC50 is 8.15.

Q: With `c1cc(CNc2ncc(-c3ccncc3)c3nncn23)c2ccoc2c1` [Example 218, N-(benzofuran-4-ylmethyl)-8-(pyridin-4-yl)-[1,2,4]triazolo[4,3-c]pyrimidin-5-amine] as the molecule, how does the pIC50 (EED (1-441)-His protein) read?
A: Its pIC50 is 7.41.

Q: What about the pIC50 [1] of the same molecule?
A: The pIC50 was 7.58.

Q: Which results are given for `Cc1c(-c2cnc(NCc3c(F)ccc4c3CCO4)n3cnnc23)ccnc1C(F)F` [Example 181, 8-(2-(difluoromethyl)-3-methylpyridin-4-yl)-N-((5-fluoro-2,3-dihydrobenzofuran-4-yl)methyl)-[1,2,4]triazolo[4,3-c]pyrimidin-5-amine]?
A: pIC50 (EED (1-441)-His protein): 8.59; pIC50 [1]: 8.22

Q: `CS(=O)(=O)Nc1ccc(-c2cnc(NCc3c(F)ccc4c3CCO4)n3cnnc23)cc1F` [Example 39, N-(2-fluoro-4-(5-(((5-fluoro-2,3-dihydrobenzofuran-4-yl)methyl)amino)-[1,2,4]triazolo[4,3-c]pyrimidin-8-yl)phenyl)methanesulfonamide] was tested. Which pIC50 (EED (1-441)-His protein) did it give?
A: The pIC50 was 7.75.

Q: And the pIC50 [1]?
A: Its pIC50 is 7.76.

Q: `O=S(=O)(NCCO)c1ccc(-c2cnc(NCc3cccc4c3CCO4)n3cnnc23)cc1` [Example 40, 4-(5-(((2,3-dihydrobenzofuran-4-yl)methyl)amino)-[1,2,4]triazolo[4,3-c]pyrimidin-8-yl)-N-(2-hydroxyethyl)benzenesulfonamide] was tested. Which pIC50 (EED (1-441)-His protein) did it give?
A: The pIC50 was 7.25.

Q: What about the pIC50 [1] of the same molecule?
A: Its pIC50 is 7.25.

Q: With `CC(=O)NCc1ccc(-c2cnc(NCc3c(F)ccc4c3CCO4)n3cnnc23)cn1` [Example 171, N-((5-(5-(((5-fluoro-2,3-dihydrobenzofuran-4-yl)methyl)amino)-[1,2,4]triazolo[4,3-c]pyrimidin-8-yl)pyridin-2-yl)methyl)acetamide] as the molecule, how does the pIC50 (EED (1-441)-His protein) read?
A: Its pIC50 is 8.22.

Q: And the pIC50 [1]?
A: The pIC50 was 8.14.

Q: How did the pIC50 (EED (1-441)-His protein) turn out when `CN(C)Cc1ccc(-c2cnc(NCc3cccc4c3CCO4)n3cnnc23)cc1` [Example 11, N-((2,3-dihydrobenzofuran-4-yl)methyl)-8-(4-((dimethylamino)methyl)phenyl)-[1,2,4]triazolo[4,3-c]pyrimidin-5-amine] was run?
A: The pIC50 was 8.16.

Q: What about the pIC50 [1] of the same molecule?
A: Its pIC50 is 7.70.

Q: How did the pIC50 (EED (1-441)-His protein) turn out when `Cc1nc(CN(C)C)ccc1-c1cnc(NCc2c(F)ccc3c2CCO3)n2cnnc12` [Example 223, 8-(6-((dimethylamino)methyl)-2-methylpyridin-3-yl)-N-((5-fluoro-2,3-dihydrobenzofuran-4-yl)methyl)-[1,2,4]triazolo[4,3-c]pyrimidin-5-amine] was run?
A: The pIC50 was 8.08.

Q: What about the pIC50 [1] of the same molecule?
A: Its pIC50 is 7.74.

Q: Which results are given for `CN(C)Cc1ccc(-c2cnc(NCc3c(F)ccc4occc34)n3cnnc23)cc1` [Example 219, 8-(4-((dimethylamino)methyl)phenyl)-N-((5-fluorobenzofuran-4-yl)methyl)-[1,2,4]triazolo[4,3-c]pyrimidin-5-amine]?
A: pIC50 (EED (1-441)-His protein): 8.19; pIC50 [1]: 8.17

Q: What does the source list for `Cc1cc(-c2cnc(NCc3cccc4c3CCO4)n3cnnc23)cnc1N1CCCC1` [Example 103, N-((2,3-dihydrobenzofuran-4-yl)methyl)-8-(5-methyl-6-(pyrrolidin-1-yl)pyridin-3-yl)-[1,2,4]triazolo[4,3-c]pyrimidin-5-amine]?
A: pIC50 (EED (1-441)-His protein): 6.14; pIC50 [1]: 6.37

Q: How did the pIC50 (EED (1-441)-His protein) turn out when `CN1CCN(C(=O)c2ccc(-c3cnc(NCc4c(F)ccc5c4CCO5)n4cnnc34)cc2)CC1` [Example 72, (4-(5-(((5-fluoro-2,3-dihydrobenzofuran-4-yl)methyl)amino)-[1,2,4]triazolo[4,3-c]pyrimidin-8-yl)phenyl)(4-methylpiperazin-1-yl)methanone] was run?
A: Its pIC50 is 8.03.

Q: And the pIC50 [1]?
A: The pIC50 was 7.76.

Q: With `Cc1nc(C2CC2)ccc1-c1cnc(NCc2c(F)ccc3c2CCO3)n2cnnc12` [Example 6, 8-(6-Cyclopropyl-2-methylpyridin-3-yl)-N-((5-fluoro-2,3-dihydrobenzofuran-4-yl)methyl)-[1,2,4]triazolo[4,3-c]pyrimidin-5-amine] as the molecule, how does the pIC50 (EED (1-441)-His protein) read?
A: Its pIC50 is 8.28.

Q: And the pIC50 [1]?
A: The pIC50 was 8.11.

Q: `FC(F)c1ccc(-c2cnc(NCc3cccc4c3CCO4)n3cnnc23)cn1` [Example 154, 8-(6-(difluoromethyl)pyridin-3-yl)-N-((2,3-dihydrobenzofuran-4-yl)methyl)-[1,2,4]triazolo[4,3-c]pyrimidin-5-amine] was tested. Which pIC50 (EED (1-441)-His protein) did it give?
A: Its pIC50 is 7.70.

Q: And the pIC50 [1]?
A: Its pIC50 is 7.43.

Q: What does the source list for `Cc1nccc(-c2cnc(NCc3c(F)ccc4c3CCO4)n3cnnc23)c1C` [Example 177, 8-(2,3-dimethylpyridin-4-yl)-N-((5-fluoro-2,3-dihydrobenzofuran-4-yl)methyl)-[1,2,4]triazolo[4,3-c]pyrimidin-5-amine]?
A: pIC50 (EED (1-441)-His protein): 8.42; pIC50 [1]: 8.36

Q: What does the source list for `CCc1cc(C)c(-c2cnc(NCc3c(F)ccc4c3CCO4)n3cnnc23)cn1` [Example 224, 8-(6-ethyl-4-methylpyridin-3-yl)-N-((5-fluoro-2,3-dihydrobenzofuran-4-yl)methyl)-[1,2,4]triazolo[4,3-c]pyrimidin-5-amine]?
A: pIC50 (EED (1-441)-His protein): 8.82; pIC50 [1]: 8.72

Q: What does the source list for `Nc1ccc(-c2cnc(NCc3cccc4c3CCO4)n3cnnc23)cn1` [Example 48, 8-(6-aminopyridin-3-yl)-N-((2,3-dihydrobenzofuran-4-yl)methyl)-[1,2,4]triazolo[4,3-c]pyrimidin-5-amine]?
A: pIC50 (EED (1-441)-His protein): 7.89; pIC50 [1]: 7.52

Q: What does the source list for `Fc1ccc2c(c1CNc1ncc(-c3ccc(N4CCSCC4)nc3)c3nncn13)CCO2` [Example 91, N-((5-fluoro-2,3-dihydrobenzofuran-4-yl)methyl)-8-(6-thiomorpholinopyridin-3-yl)-[1,2,4]triazolo[4,3-c]pyrimidin-5-amine]?
A: pIC50 (EED (1-441)-His protein): 8.00; pIC50 [1]: 7.82

Q: Which results are given for `COc1cc(Cl)c(-c2cnc(NCc3c(F)ccc4c3CCO4)n3cnnc23)cn1` [Example 138, 8-(4-chloro-6-methoxypyridin-3-yl)-N-((5-fluoro-2,3-dihydrobenzofuran-4-yl)methyl)-[1,2,4]triazolo[4,3-c]pyrimidin-5-amine]?
A: pIC50 (EED (1-441)-His protein): 8.72; pIC50 [1]: 8.08

Q: `Fc1ccc2c(c1CNc1ncc(-c3ccnn3C3CC3)c3nncn13)CCO2` [Example 192, 8-(1-cyclopropyl-1H-pyrazol-5-yl)-N-((5-fluoro-2,3-dihydrobenzofuran-4-yl)methyl)-[1,2,4]triazolo[4,3-c]pyrimidin-5-amine] was tested. Which pIC50 (EED (1-441)-His protein) did it give?
A: The pIC50 was 8.46.

Q: And the pIC50 [1]?
A: Its pIC50 is 7.90.
